The source of these data is patent US20030229906A1, “Methods and compositions for the treatment of disorders of HIV infection” (priority 2002, published 2003).

For one experiment, the system named is HIVAN in transgenic mice. The following applies: by inhibiting cellular Cdk9, an enzyme required for HIV-1 Tat to induce LTR-mediated virus transcription; cited from earlier work.
The target in experiment [1] is Src tyrosine kinase (mouse) (UniProt P05480). Nature of the experiment: cell-based or functional assay.

In the case of `CN1CC[C@H](c2c(O)cc(O)c3c(=O)cc(-c4ccccc4Cl)oc23)[C@H](O)C1` [flavopiridol], the “effect on HIVAN in transgenic mice” value in the experiment with HIVAN in transgenic mice is listed as “ameliorates HIVAN”. HIV-1 Nef: the specific activity of the Src tyrosine kinase (immune-complex kinase assay with [gamma-32P]-ATP and enolase, podocytes transduced with Nef or vector) in experiment [1] is 2.3 fold.
